Measurements: patent publication US20230032216A1, “INTERLEUKIN-4-INDUCED GENE 1 (IL4I1) AND RESPECTIVE METABOLITES AS BIOMARKERS FOR CANCER” (DEUTSCHES KREBSFORSCHUNGSZENTRUM STIFTUNG DES ÖFFENTLICHEN …, priority 2019, published 2023)

How the values were obtained:
[1] = Conversion of I3P to KynA under cell-free conditions; type: physicochemical
[2] = system: U-87MG cells; assay: Wound healing (migration) assay with Ctrl and IL4I1-expressing glioblastoma cells; type: cell-based, human; conditions: ectopically IL4I1-expressing U-87MG cells, 1 μM SR1, FIG. 3C
Experimental: Cells were seeded in 2-well cell culture inserts (ibidi, 80209) placed in 24-well plates. For U-87MG cells, as well as Ctrl and IL4I1-expressing U-87MG cells, 3×10^4 cells in 100 μL medium per well of cell culture insert were seeded. In the case of Ctrl and IL4I1-expressing U-251MG cells, 4×10^4 in 100 μL medium per well of cell culture insert were seeded. Cells were incubated for 16 h, inserts were removed and 1 mL of complete DMEM medium was added to each well of the plate. Cell migration was monitored by taking pictures at indicated time points, until gap (500 μm+/−100 μm) was covered by cells. In the case where U-87MG cells were treated with I3P or SR1, treatments were applied at the time of seeding the cells in the 2 well cell culture inserts. In addition, after 16 h incubation time and insert removal, 1 mL of complete DMEM medium containing treatments was applied to cells and kept throughout the assay. For each independent experiment, 3 pictures per well were taken and each condition was carried out at least in 3 wells. Pictures were taken with an ECLIPSE Ti-E/B inverted microscope (Nikon) with the 4×objective and using the NIS Elements software version 4.13.04. Pictures were analyzed with TScratch software version 1.0 (Geback et al., 2009). Cell migration was assessed by calculating the percentage of covered area for each time point normalized to the area at the 0 h time point.

[3] = system: advanced melanoma; conditions: epacadostat in combination with the anti-PD-1 mAb pembrolizumab, advanced melanoma (Long et al., 2019); cited from earlier work
[4] = system: advanced melanoma; assay: RNA-seq of advanced melanoma patients before and on nivolumab treatment (Riaz et al., GSE91061); type: in vivo, human
Source text: RNA-seq datasets-Raw counts and metadata were downloaded from GEO using GEOquery (Davis and Meltzer, 2007). The harmonized HT-Seq counts and Fragments Per Kilobase of transcript per Million mapped reads (FPKM) of TCGA datasets were downloaded using TCGAbiolinks (Colaprico et al., 2016) from Genomic Data Commons (GDC) (https://gdc.cancer.gov/), and only patients with the identifier “primary tumor” were retained, with the exception of melanoma that was split into datasets for primary and metastatic cohorts. The FPKM values were converted to transcripts per million (TPMs) (Li and Dewey, 2011). TPM data of normal tissues were downloaded from the Genotype-Tissue Expression (GTEx) dataset (https://gtexportal.org/home/). All TPM values were log 2 transformed. Raw counts of the Riaz et al. […] (Riaz et al., 2017) advanced melanoma dataset were downloaded from https://github.com/riazn/bms038_analysis, and based on principle component analysis one outlier patient pair was removed (Pt-84). RNA-seq counts were saved as DGELists (Robinson et al., 2010). Genes with less than 10 counts were filtered followed by trimmed mean of M values (TMM) normalization (Robinson and Oshlack, 2010) and variance modeling using voom (Law et al., 2014).

[5] = advanced melanoma patients, before vs after nivolumab, FIG. 8C, re-analysis of Riaz et al. 2017

Q: What does the source list for `O=C(O)C(=O)Cc1c[nH]c2ccccc12` [I3P, Indole-3-pyruvic acid]?
A: Formation of KynA from I3P ([1]; data not shown): formed spontaneously; Formation of KynA from I3P in the presence of H2O2 ([1]; with H2O2, data not shown): enhanced

Q: Which “IL4I1-mediated motility of AHR-proficient cells” value [2] does the source give for `CC(C)n1cnc2c(NCCc3ccc(O)cc3)nc(-c3csc4ccccc34)nc21` [SR1] here?
A: reversed

Q: For `NS(=O)(=O)NCCNc1nonc1C(=NO)Nc1ccc(F)c(Br)c1` [epacadostat], which “Clinical benefit in phase III trial” value [3] is on record?
A: failed

Q: Which “AHR activation (AHR signature)” value ([4]; advanced melanoma patients after nivolumab, FIG. 8D) does the source give for “nivolumab: anti-PD-1 monoclonal antibody (mAb) nivolumab” here?
A: resulted in AHR activation

Q: And the “Hallmark of cancer gene set enrichment” value ([4]; advanced melanoma patients before vs on Nivolumab therapy, FIG. 10)?
A: strong upregulation of inflammatory hallmark gene signatures

Q: What about the IDO1 expression [4, 5] of the same molecule?
A: induced

Q: And the IL4I1 expression [4, 5]?
A: induced

Q: And the IL4I1 expression ([4]; advanced melanoma patients, before vs after nivolumab, FIG. 8C, re-analysis of Riaz et al. 2017, listed as Nivolumab)?
A: higher expression of IL4I1

Q: And the “IL4I1 expression in ipilimumab-naïve patients” value ([4]; ipilimumab-naïve advanced melanoma patients, response to nivolumab, FIG. 8E)?
A: significant IL4I1 increase
